Results published in patent US6924297B2, “Naphathalene derivatives which bind to the EP4 receptor” (SmithKline Beecham Corporation, priority 2000, dated 2005).

Biological target: T1, human EP4 receptor (Homo sapiens, UniProt P35408)
T1 construct: expressed in transfected cells; host or cells: Chinese Hamster Ovary (CHO) cells infected with recombinant Semliki Forest Virus (SFV-1) particles; membranes prepared from these cells
Assay: Human EP4 Scintillation Proximity Assay (radioligand binding)
Details: membranes of CHO cells expressing human EP4 receptor; [3H]-prostaglandin E2 radioligand; pKi from IC50 by Cheng-Prusoff; read-out: pKI at EP4 receptors (converted)
Procedure: Quantification of radioligand binding by scintillation proximity assay (SPA) is a long-established principle. Briefly, the affinity of compounds for a receptor is assessed by the specific competition between known quantities of radiolabelled ligand and compound for that receptor. Increasing concentrations of compound reduce the amount of radiolabel that binds to the receptor. This gives rise to a diminishing scintillation signal from SPA beads coated with membranes that bear the receptor. The signal may be detected with a suitable scintillation counter and the data generated may be analysed with suitable curve-fitting software.
The human EP4 SPA assay (hereafter referred to as ‘the assay’) utilises membranes prepared from Chinese Hamster Ovary (CHO cells) infected with Semliki Forest Virus (SFV). Genetically engineered SFV-1 viral particles containing the genetic sequence of the human EP4 receptor were used to infect CHO cells resulting in expression of the receptor protein in cellular membranes. Cells washed free of media are homogenised in a pH-buffered medium containing peptidase inhibitors. A suitable buffer is of the following composition: 50 mM HEPES, 1 mM EDTA, 25 μg/ml bacitracin, 100 μM leupeptin, 1 mM PMSF, 2 μM Pepstatin A, pH adjusted to 7.4 with KOH. Following removal of cell debris by a low-speed centrifugation, a pellet of membranes is prepared by a high-speed (48000 g) centrifugation of the resulting supernatant. Membrane suspensions such as that described may be stored at −80° C. until used.
For assay, membranes expressing human EP4 receptors are diluted in a pH-buffered medium and mixed with SPA beads coated with a suitable substance to facilitate the adhesion of membranes to the beads. The concentrations of membrane protein and SPA beads chosen should result in SPA binding signal of at least 300 corrected counts per minute (CCPM) when tritiated radioligand at a concentration close to its Kd (affinity value) is combined with the mixture. Non-specific binding (nsb) may be determined by competition between the radiolabelled ligand and a saturating concentration of unlabelled ligand. In order to quantify the affinity of EP4 receptor ligands, compounds are diluted in a stepwise manner across the wells of a 96-well plate. Radioligand, compound, and unlabelled ligand are then added to a 96-well plate suitable for the measurement of SPA binding signals prior to the addition of bead/membrane mixture to initiate the binding reaction. Equilibrium may be achieved by incubation at room temperature for 120 minutes prior to scintillation counting. The data so generated may be analysed by means of a computerised curve-fitting routine in order to quantify the concentration of compound that displaces 50% of the specific radioligand binding (IC50). The affinity (pKi) of the compound may be calculated from the IC50 by application of the Cheng-Prusoff correction. Suitable reagents and protocols are: reaction buffer containing 50 mM HEPES, 10 mM MgCl2, pH adjusted to 7.4 with KOH; SPA beads coated with wheatgerm agglutinin; 1.25 nM [^3H]-prostaglandin E2 as radioligand; 10 μM prostaglandin E2 as unlabelled ligand; a three-fold dilution series of compound starting at 10 μM and ending at 0.3 nM is adequate.

T1 sequence (P35408 whole entry): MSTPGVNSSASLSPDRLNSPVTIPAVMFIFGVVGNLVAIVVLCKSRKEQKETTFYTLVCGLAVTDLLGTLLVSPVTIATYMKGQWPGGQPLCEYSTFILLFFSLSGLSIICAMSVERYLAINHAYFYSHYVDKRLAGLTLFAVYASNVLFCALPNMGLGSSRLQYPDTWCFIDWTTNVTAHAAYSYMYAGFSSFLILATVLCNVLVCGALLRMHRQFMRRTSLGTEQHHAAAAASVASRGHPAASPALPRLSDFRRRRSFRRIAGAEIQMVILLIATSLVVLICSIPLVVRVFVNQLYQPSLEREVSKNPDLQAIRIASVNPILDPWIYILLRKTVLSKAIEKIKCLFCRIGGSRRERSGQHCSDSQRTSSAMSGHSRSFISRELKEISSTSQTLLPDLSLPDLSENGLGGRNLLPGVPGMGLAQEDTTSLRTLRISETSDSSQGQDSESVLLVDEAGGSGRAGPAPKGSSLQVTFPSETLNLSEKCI

Ki [nM] | Compound
≤ 100 | CCOc1c2c(c(OCC)c3ccccc13)C(=O)N(c1ccc(CS(=O)(=O)NC(=O)Cc3c(C)cccc3C)cc1)C2=O [Example 72]
≤ 100 | CCOc1c2c(c(OCC)c3ccccc13)C(=O)N(c1ccc(CS(=O)(=O)NC(=O)Cc3cc(OC)cc(OC)c3)cc1)C2 [Example 83]
≤ 100 | CCOc1c2c(c(OCC)c3ccccc13)C(=O)N(c1ccc(CS(=O)(=O)NC(=O)C(C)(C)c3cccc(C)c3)cc1)C2=O [Example 73]
≤ 100 | CCOc1c2c(c(OCC)c3ccccc13)C(=O)N(c1ccc(CS(=O)(=O)NC(=O)Cc3ccc(C)c(F)c3)cc1)C2=O [Example 74]
≤ 100 | CCOc1c2c(c(OCC)c3ccccc13)C(=O)N(c1ccc(CS(=O)(=O)NC(=O)Cc3cccc4occc34)cc1)C2 [Example 88]
≤ 100 | CCOc1c2c(c(OCC)c3ccccc13)C(=O)N(c1ccc(CS(=O)(=O)NC(=O)C(C)c3ccc4cc(OC)ccc4c3)cc1)C2 (stereo not shown) [Example 86]
≤ 100 | CCOc1c2c(c(OCC)c3ccccc13)C(=O)N(c1ccc(CS(=O)(=O)NC(=O)Cc3cccc4ccccc34)cc1)C2=O [Example 76]
≤ 100 | CCOc1c2c(c(OCC)c3ccccc13)C(=O)N(c1ccc(CS(=O)(=O)NC(=O)Cn3ccc4ccccc43)cc1)C2 [Example 87]
≤ 100 | CCOc1c2c(c(OCC)c3ccccc13)C(=O)N(c1ccc(CS(=O)(=O)NC(=O)C(Cl)c3ccccc3)cc1)C2=O (stereo not shown) [Example 75]
≤ 100 | CCOc1c2c(c(OCC)c3ccccc13)C(=O)N(c1ccc(CS(=O)(=O)NC(=O)Cc3ccc4c(c3)OCO4)cc1)C2=O [Example 93]
≤ 100 | CCOc1c2c(c(OCC)c3ccccc13)C(=O)N(c1ccc(CS(=O)(=O)NC(=O)Cc3ccc4c(c3)OC(C)(C)O4)cc1)C2 [Example 85]

Continued, compound first:

Compound | Ki [nM]
CCOc1c2c(c(OCC)c3ccccc13)C(=O)N(c1ccc(CS(=O)(=O)NC(=O)Cc3ccc(CC(C)C)cc3)cc1)C2 [Example 23] | ≤ 100
CCOc1c2c(c(OCC)c3ccccc13)C(=O)N(c1ccc(CS(=O)(=O)NC(=O)Cc3cccc(OC)c3OC)cc1)C2 [Example 34, 1-[4-(4,9-diethoxy-1-oxo-1,3-dihydro-2H-benzo[f]isoindol-2-yl)phenyl]-N-[(2,3-dimethoxyphenyl)acetyl]methanesulfonamide] | ≤ 100
CCOc1c2c(c(OCC)c3ccccc13)C(=O)N(c1ccc(CS(=O)(=O)NC(=O)Cc3cccc(F)c3)cc1)C2=O [Example 65] | ≤ 100
CCOc1c2c(c(OCC)c3ccccc13)C(=O)N(c1ccc(CS(=O)(=O)NC(=O)Cc3ccccc3OC)cc1)C2 [Example 31, 1-[4-(4,9-diethoxy-1-oxo-1,3-dihydro-2H-benzo[f]isoindol-2-yl)phenyl]-N-[(2-methoxyphenyl)acetyl]methanesulfonamide] | ≤ 100
CCOc1c2c(c(OCC)c3ccccc13)C(=O)N(c1ccc(CS(=O)(=O)NC(=O)Cc3ccc4ccccc4c3)cc1)C2 [Example 48] | ≤ 100
CCOc1c2c(c(OCC)c3ccccc13)C(=O)N(c1ccc(CS(=O)(=O)NC(=O)C(C)(C)c3ccccc3)cc1)C2 [Example 22] | ≤ 100
CCOc1c2c(c(OCC)c3ccccc13)C(=O)N(c1ccc(CS(=O)(=O)NC(=O)C(CC)c3ccccc3)cc1)C2=O (stereo not shown) [Example 64] | ≤ 100
CCOc1c2c(c(OCC)c3ccccc13)C(=O)N(c1ccc(CS(=O)(=O)NC(=O)Cc3cc(C)ccc3C)cc1)C2 [Example 39] | ≤ 100
CCOc1c2c(c(OCC)c3ccccc13)C(=O)N(c1ccc(CS(=O)(=O)NC(=O)Cc3ccc(C)cc3)cc1)C2 [Example 20] | ≤ 100
CCOc1c2c(c(OCC)c3ccccc13)C(=O)N(c1ccc(CS(=O)(=O)NC(=O)Cc3ccc(OC)c(OC)c3)cc1)C2=O [Example 66, 1-[4-(4,9-diethoxy-1,3-dioxo-1,3-dihydro-2H-benzo[f]isoindol-2-yl)phenyl]-N-[(3,4-dimethoxyphenyl)acetyl]methanesulfonamide] | ≤ 100
CCOc1c2c(c(OCC)c3ccccc13)C(=O)N(c1ccc(CS(=O)(=O)NC(=O)Cc3ccccc3)cc1)C2 [Example 18, 1-[4-(4,9-diethoxy-1-oxo-1,3-dihydro-2H-benzo[f]isoindol-2-yl)phenyl]-N-(phenylacetyl)methanesulfonamide] | ≤ 100
CCOc1c2c(c(OCC)c3ccccc13)C(=O)N(c1ccc(CS(=O)(=O)NC(=O)C3(c4ccccc4)CC3)cc1)C2 [Example 50] | ≤ 100
CCOc1c2c(c(OCC)c3ccccc13)C(=O)N(c1ccc(CS(=O)(=O)NC(=O)Cc3ccc(-c4ccccc4)cc3)cc1)C2 [Example 30] | ≤ 100
CCOc1c2c(c(OCC)c3ccccc13)C(=O)N(c1ccc(CS(=O)(=O)NC(=O)Cc3ccc(Cl)cc3)cc1)C2=O [Example 70] | ≤ 100
CCOc1c2c(c(OCC)c3ccccc13)C(=O)N(c1ccc(CS(=O)(=O)NC(=O)Cc3cccc(F)c3)cc1)C2 [Example 25] | ≤ 100
CCOc1c2c(c(OCC)c3ccccc13)C(=O)N(c1ccc(CS(=O)(=O)NC(=O)Cc3ccccc3OC)cc1)C2=O [Example 71, 1-[4-(4,9-diethoxy-1,3-dioxo-1,3-dihydro-2H-benzo[f]isoindol-2-yl)phenyl]-N-[(2-methoxyphenyl)acetyl]methanesulfonamide] | ≤ 100
CCOc1c2c(c(OCC)c3ccccc13)C(=O)N(c1ccc(CS(=O)(=O)NC(=O)Cc3ccc(C)cc3)cc1)C2=O [Example 67, 1-[4-(4,9-diethoxy-1,3-dioxo-1,3-dihydro-2H-benzo[f]isoindol-2-yl)phenyl]-N-[(4-methylphenyl)acetyl]methanesulfonamide] | ≤ 100
CCOc1c2c(c(OCC)c3ccccc13)C(=O)N(c1ccc(CS(=O)(=O)NC(=O)Cc3cccc(OCc4ccccc4)c3)cc1)C2 [Example 42] | ≤ 100
CCOc1c2c(c(OCC)c3ccccc13)C(=O)N(c1ccc(CS(=O)(=O)NC(=O)Cc3ccccc3F)cc1)C2 [Example 32] | ≤ 100
CCOc1c2c(c(OCC)c3ccccc13)C(=O)N(c1ccc(CS(=O)(=O)NC(=O)Cc3scnc3C)cc1)C2 [Example 60] | ≤ 100
